Patent US20100003217A1, “Compounds and Pharmaceutical Compositions for the Treatment of Viral Infections” (priority 2008, published 2010)
“And” between values parts separate entries of the source, which are not always exact repeats. Identical values can stand only once.

Tested on: human primary hepatocytes
Test: Metabolic disposition of [^14C]-Compound 1 and [^14C]-2′-C-methyl guanosine in human primary hepatocytes (incubation medium, cellular extracts, nucleotide levels)
Assay type: in vitro ADME
Details: for AUC (area under the concentration-time curve) of Compound 7 levels: 0-24 h
Protocol: Primary hepatocytes: Freshly isolated cells from animal and human liver were obtained in suspension on ice. Cells were pelleted by centrifugation at 70-75×g (rat) or 95-90×g (monkey and human) and resuspended at 0.8 million cells per mL of platting medium (William's E supplemented with 5% FBS, 0.5% penicillin-streptomycin, 1% L-glutamine, 4 μg/mL insulin and 1 μM dexamethasone). Multi-well collagen I-coated plates (rat tail collagen type I; 12- or 6-well) were then seeded by addition of 1 mL (12-well; 0.8 million cells/well) or 2 mL (6-well; 1.6 million cells/well) of cell suspension. The plates were gently shaken to evenly distribute the cells and placed in an incubator at 37° C. for approximately 4 to 6 hours to allow cells to attach. Once cells were attached, the platting medium was removed and replaced with hepatocyte culture medium (William's E supplemented with penicillin-streptomycin, 1% L-glutamine, 1% insulin-transferrin-selenium and 0.1 μM dexamethasone). Cells were left overnight in an incubator at 37° C. to acclimatize to culture and the medium.
Hepatocyte incubations with radiolabeled Compound 1 and 2′-C-methyl guanosine, both labeled in the C-8 position of the guanine moiety, were conducted at a final volume of 2.0 mL hepatocyte culture medium/well ([…]). Culture medium from overnight incubation of cells was removed and replaced with fresh medium, pre-warmed to 37° C., containing 1 or 10 μM [^14C]-Compound 1 ([…]) or [^14C]-2′-C-methyl guanosine (127 DPM/μmol) from a stock solution in DMSO (final DMSO concentration was 0.1%) or 50% ethanol (final ethanol concentration was 0.2%). After 1, 4, 8 and 24 hours, 0.5-1.0 mL of incubation medium was removed and stored at −20° C. until analysis (described below). The remaining medium was discarded and cell monolayers were carefully washed two times with ice-cold PBS. Following the last wash, all PBS was carefully removed and 1.0 mL of extraction solution (ice-cold 70% methanol) added. Cells were scrapped off and suspended in the extraction solution, transferred to 2 mL polypropylene microfuge tubes and intracellular contents extracted overnight at −20° C.
Preliminary identification of putative metabolites was conducted by comparing the retention time of observed metabolites in incubation medium and cellular extracts with retention times obtained with chemically synthesized standards using the chromatography conditions described below. Further identification of 2′-C-methyl guanosine nucleotides (mono-, di- and triphosphate) was carried out by incubating cellular extract samples with alkaline phosphatase (10 units for 60 min at 37° C.) and comparing the HPLC retention times of the resulting nucleosides with that of authentic 2′-C-methyl guanosine.
Cellular extracts were prepared by centrifugation at 16,000 RCF using an Eppendorf microcentrifuge (Eppendorf, Model 5415D) for 10 min to remove cellular debris. An aliquot of 5-10 μL of the supernatant was added to 5 mL of EcoLite™ (MP, Irvine, Calif.) liquid scintillation cocktail and radioactivity measured by liquid scintillation counting (LSC) using a Beckman Coulter LS6500 multipurpose liquid scintillation counter (Beckman Instruments, Fullerton, Calif.). The remaining sample was then dried using a Labconco refrigerated centrivap concentrator (Labconco, Kansas City, Mo.). Dry extracts were reconstituted in 120 μL of HPLC-grade water and centrifuged at 16,000 RCF using an Eppendorf microcentrifuge for 10 min. Prior to HPLC analysis (described below), radioactivity of the concentrated extracts was measured by LSC using 5 μL aliquots. Extraction recovery was then determined by comparing total radioactivity in extracts before and after drying. The remaining extract was then analyzed by HPLC with online radioactivity detection using a Flow Scintillation Analyzer Radiomatic™ 515TR. Radioactivity in the separated components was quantified by integrating the peaks using Flo-One™ Software (Perkin Elmer Life Sciences). […]

[1] = human hepatocytes (Hu775), 1 μM [^14C]-Compound 1, 1 h
[2] = human hepatocytes (Hu775), 1 μM [^14C]-Compound 1, 8 h
[3] = human hepatocytes (Hu775), 1 μM [^14C]-Compound 1, 24 h
[4] = human hepatocytes Hu775, 1 μM [^14C]-2′-C-methyl guanosine, 1 h
[5] = human hepatocytes Hu775, 1 μM [^14C]-2′-C-methyl guanosine, 8 h
[6] = human hepatocytes Hu775, 1 μM [^14C]-2′-C-methyl guanosine, 24 h

C[C@@]1(O)[C@H](O)[C@@H](COP(=O)(O)OP(=O)(O)OP(=O)(O)O)O[C@H]1n1cnc2c(=O)[nH]c(N)nc21 [Compound 7, [(2R)-2-methyl-β-D-ribofuranosyl]guanine 5′-triphosphate]
metabolites observed in cellular extracts (% of total radioactivity) (human hepatocytes (Hu759, Hu775), 10 μM [^14C]-2′-C-methyl guanosine, 1 h): 2.40% and 3.93%
metabolites observed in cellular extracts (% of total radioactivity) (human hepatocytes (Hu759, Hu775), 10 μM [^14C]-2′-C-methyl guanosine, 4 h): 11.1% and 19.4%
metabolites observed in cellular extracts (% of total radioactivity) (human hepatocytes (Hu759, Hu775), 10 μM [^14C]-2′-C-methyl guanosine, 8 h): 19.6% and 34.1%
metabolites observed in cellular extracts (% of total radioactivity) (human hepatocytes (Hu759, Hu775), 10 μM [^14C]-2′-C-methyl guanosine, 24 h): 36.1% and 45.8%
metabolites observed in cellular extracts (% of total radioactivity) (human hepatocytes (Hu759, Hu775), 10 μM [^14C]-Compound 1, 1 h): 34.2% and 46.4%
metabolites observed in cellular extracts (% of total radioactivity) (human hepatocytes (Hu759, Hu775), 10 μM [^14C]-Compound 1, 4 h): 63.1% and 69.7%
metabolites observed in cellular extracts (% of total radioactivity) (human hepatocytes (Hu759, Hu775), 10 μM [^14C]-Compound 1, 8 h): 70.5% and 74.1%
metabolites observed in cellular extracts (% of total radioactivity) (human hepatocytes (Hu759, Hu775), 10 μM [^14C]-Compound 1, 24 h): 69.5% and 59.6%
2′-C-methyl guanosine nucleotide levels in cellular extracts [1]: 8.80 pmol/million cells
metabolites observed in cellular extracts (% of total radioactivity) [1]: 48.5%
2′-C-methyl guanosine nucleotide levels in cellular extracts [2]: 44.2 pmol/million cells
metabolites observed in cellular extracts (% of total radioactivity) [2]: 75.0%
2′-C-methyl guanosine nucleotide levels in cellular extracts [3]: 60.4 pmol/million cells
metabolites observed in cellular extracts (% of total radioactivity) [3]: 67.0%
Compound 7 AUC0-24h (human hepatocytes (n=1), 1 μM [^14C]-2′-C-methyl guanosine): 302 pmol*h/million cells
Compound 7 AUC0-24h (human hepatocytes (n=1), 1 μM [^14C]-Compound 1): 1,027 pmol*h/million cells
Compound 7 AUC0-24h (human hepatocytes (n=2), 10 μM [^14C]-Compound 1, mean): 7,398 pmol*h/million cells
2′-C-methyl guanosine nucleotide levels in cellular extracts (human hepatocytes Hu759, 10 μM [^14C]-2′-C-methyl guanosine, 0 h): 0 pmol/million cells
AUC (area under the concentration-time curve) of Compound 7 levels (human hepatocytes Hu759, 10 μM [^14C]-2′-C-methyl guanosine): 2871 pmol * hr/million cells
2′-C-methyl guanosine nucleotide levels in cellular extracts (human hepatocytes Hu759, 10 μM [^14C]-2′-C-methyl guanosine, 1 h): 9.70 pmol/million cells
2′-C-methyl guanosine nucleotide levels in cellular extracts (human hepatocytes Hu759, 10 μM [^14C]-2′-C-methyl guanosine, 4 h): 51.0 pmol/million cells
2′-C-methyl guanosine nucleotide levels in cellular extracts (human hepatocytes Hu759, 10 μM [^14C]-2′-C-methyl guanosine, 8 h): 96.0 pmol/million cells
2′-C-methyl guanosine nucleotide levels in cellular extracts (human hepatocytes Hu759, 10 μM [^14C]-2′-C-methyl guanosine, 24 h): 214 pmol/million cells
2′-C-methyl guanosine nucleotide levels in cellular extracts (human hepatocytes Hu759, 10 μM [^14C]-Compound 1, 0 h): 0 pmol/million cells
AUC (area under the concentration-time curve) of Compound 7 levels (human hepatocytes Hu759, 10 μM [^14C]-Compound 1): 5759 pmol * hr/million cells
2′-C-methyl guanosine nucleotide levels in cellular extracts (human hepatocytes Hu759, 10 μM [^14C]-Compound 1, 1 h): 24.0 pmol/million cells
2′-C-methyl guanosine nucleotide levels in cellular extracts (human hepatocytes Hu759, 10 μM [^14C]-Compound 1, 4 h): 166 pmol/million cells
2′-C-methyl guanosine nucleotide levels in cellular extracts (human hepatocytes Hu759, 10 μM [^14C]-Compound 1, 8 h): 225 pmol/million cells
2′-C-methyl guanosine nucleotide levels in cellular extracts (human hepatocytes Hu759, 10 μM [^14C]-Compound 1, 24 h): 360 pmol/million cells
AUC (area under the concentration-time curve) of Compound 7 levels (human hepatocytes Hu775, 1 μM [^14C]-2′-C-methyl guanosine): 302 pmol * hr/million cells
2′-C-methyl guanosine nucleotide levels in cellular extracts [4]: 1.90 pmol/million cells
Major metabolites observed in cellular extracts (% of total radioactivity) [4]: 5.36 % of total radioactivity
2′-C-methyl guanosine nucleotide levels in cellular extracts [5]: 11.0 pmol/million cells
Major metabolites observed in cellular extracts (% of total radioactivity) [5]: 27.3 % of total radioactivity
2′-C-methyl guanosine nucleotide levels in cellular extracts [6]: 21.0 pmol/million cells
Major metabolites observed in cellular extracts (% of total radioactivity) [6]: 46.3 % of total radioactivity
AUC (area under the concentration-time curve) of Compound 7 levels (human hepatocytes Hu775, 1 μM [^14C]-Compound 1): 1027 pmol * hr/million cells
2′-C-methyl guanosine nucleotide levels in cellular extracts (human hepatocytes Hu775, 10 μM [^14C]-2′-C-methyl guanosine, 0 h): 0 pmol/million cells
AUC (area under the concentration-time curve) of Compound 7 levels (human hepatocytes Hu775, 10 μM [^14C]-2′-C-methyl guanosine): 3548 pmol * hr/million cells
2′-C-methyl guanosine nucleotide levels in cellular extracts (human hepatocytes Hu775, 10 μM [^14C]-2′-C-methyl guanosine, 1 h): 18.5 pmol/million cells
2′-C-methyl guanosine nucleotide levels in cellular extracts (human hepatocytes Hu775, 10 μM [^14C]-2′-C-methyl guanosine, 4 h): 86 pmol/million cells and 86.0 pmol/million cells
2′-C-methyl guanosine nucleotide levels in cellular extracts (human hepatocytes Hu775, 10 μM [^14C]-2′-C-methyl guanosine, 8 h): 149 pmol/million cells
2′-C-methyl guanosine nucleotide levels in cellular extracts (human hepatocytes Hu775, 10 μM [^14C]-2′-C-methyl guanosine, 24 h): 215 pmol/million cells
2′-C-methyl guanosine nucleotide levels in cellular extracts (human hepatocytes Hu775, 10 μM [^14C]-Compound 1, 0 h): 0 pmol/million cells
AUC (area under the concentration-time curve) of Compound 7 levels (human hepatocytes Hu775, 10 μM [^14C]-Compound 1): 9036 pmol * hr/million cells
2′-C-methyl guanosine nucleotide levels in cellular extracts (human hepatocytes Hu775, 10 μM [^14C]-Compound 1, 1 h): 54 pmol/million cells and 54.0 pmol/million cells
2′-C-methyl guanosine nucleotide levels in cellular extracts (human hepatocytes Hu775, 10 μM [^14C]-Compound 1, 4 h): 216 pmol/million cells
2′-C-methyl guanosine nucleotide levels in cellular extracts (human hepatocytes Hu775, 10 μM [^14C]-Compound 1, 8 h): 366 pmol/million cells
2′-C-methyl guanosine nucleotide levels in cellular extracts (human hepatocytes Hu775, 10 μM [^14C]-Compound 1, 24 h): 564 pmol/million cells
Compound 7 maximal levels (human hepatocytes, 1 μM [^14C]-Compound 1): 60.4 pmol/million cells
Maximum Compound 7 levels (human hepatocytes, 10 μM [^14C]-2′-C-methyl guanosine, at 24 hours): 215 pmol/million cells
Maximum Compound 7 levels (human hepatocytes, 10 μM [^14C]-Compound 1, at 24 hours, mean of two donors): 296 pmol/million cells
